In brackets after ≈: the same amount, converted by molar mass.
Legend:
[1] = Hemolytic activity in RBC (uinknown origin); assay type: cell-based; conditions: erythrocyte
[2] = Displacement of [3H]acetyl-CoA from Escherichia coli full-length beta-ketoacyl-ACP synthase3 expressed in Escherichia coli BL21 (DE3) by liquid scintillation counting analysis
[3] = system: Staphylococcus aureus; test: Antibacterial activity against Staphylococcus aureus ATCC 6538 after 24 hrs by MTT assay; assay type: functional; conditions: ATCC 6538, 24 h
[4] = system: Bacillus spizizenii; test: Antibacterial activity against Bacillus subtilis ATCC 6633 after 24 hrs by MTT assay; assay type: functional; conditions: ATCC 6633, 24 h
[5] = system: Pseudomonas aeruginosa; test: Antibacterial activity against Pseudomonas aeruginosa ATCC 13525 after 24 hrs by MTT assay; assay type: functional; conditions: ATCC 13525, 24 h
[6] = system: Escherichia coli; test: Antibacterial activity against Escherichia coli ATCC 35218 after 24 hrs by MTT assay; assay type: functional; conditions: ATCC 35218, 24 h

SMILES	IC50 [2] [µM]	MIC [3] [µg/mL]	MIC [4] [µg/mL]	MIC [5] [µg/mL]	MIC [6] [µg/mL]	LC30 [1] [µg/mL]
O=C(Nc1nc(-c2ccccc2)cs1)c1ccccc1	–	> 100	> 100	> 100	> 100	–
COc1cccc(CC(=O)Nc2nc(-c3ccc(Br)cc3)cs2)c1	65.6	50 (≈ 124 µM)	25 (≈ 62 µM)	50 (≈ 124 µM)	25 (≈ 62 µM)	> 10000
O=C(Nc1nc(-c2ccc(Br)cc2)cs1)c1ccc2ccccc2c1	–	> 100	> 100	> 100	> 100	–
O=C(Nc1nc(-c2ccc(Br)cc2)cs1)c1ccccc1	–	> 100	> 100	> 100	> 100	–
COc1cccc(CC(=O)Nc2nc(-c3ccccc3)cs2)c1	–	50 (≈ 154 µM)	100 (≈ 308 µM)	50 (≈ 154 µM)	50 (≈ 154 µM)	–
O=C(Nc1nc(-c2ccccc2)cs1)c1ccc2ccccc2c1	–	> 100	50 (≈ 151 µM)	> 100	> 100	–
CC1(C)S[C@@H]2[C@H](NC(=O)Cc3ccccc3)C(=O)N2[C@H]1C(=O)O [PENICILLIN G]	–	6.25 (≈ 18.7 µM)	1.56 (≈ 4.67 µM)	6.25 (≈ 18.7 µM)	3.13 (≈ 9.36 µM)	–
O=C(Nc1nc(-c2ccccc2)cs1)N1CCOCC1	–	> 100	> 100	> 100	> 100	–
O=C(Nc1nc(-c2ccccc2)cs1)c1cccc2ccccc12	–	> 100	> 100	> 100	> 100	–
CCOc1ccc(CC(=O)Nc2nc(-c3ccccc3)cs2)cc1OCC	–	> 100	> 100	50 (≈ 131 µM)	50 (≈ 131 µM)	–
CCOc1ccc(CC(=O)Nc2nc(-c3ccc(Br)cc3)cs2)cc1OCC	–	> 100	50 (≈ 108 µM)	25 (≈ 54.2 µM)	50 (≈ 108 µM)	–
O=C(Cc1ccccc1)Nc1nc(-c2ccccc2)cs1	–	25 (≈ 84.9 µM)	50 (≈ 170 µM)	100 (≈ 340 µM)	100 (≈ 340 µM)	–
O=C(Nc1nc(-c2ccc(Br)cc2)cs1)N1CCOCC1	–	> 100	100 (≈ 272 µM)	> 100	50 (≈ 136 µM)	–
O=C(Cc1ccc(Cl)cc1)Nc1nc(-c2ccccc2)cs1	41.8	25 (≈ 76 µM)	12.5 (≈ 38 µM)	25 (≈ 76 µM)	25 (≈ 76 µM)	> 10000
O=C(Cc1ccc(Br)cc1)Nc1nc(-c2ccccc2)cs1	–	50 (≈ 134 µM)	25 (≈ 67 µM)	50 (≈ 134 µM)	50 (≈ 134 µM)	–
O=C(Nc1nc(-c2ccc(Br)cc2)cs1)c1cccc2ccccc12	–	> 100	> 100	100 (≈ 244 µM)	50 (≈ 122 µM)	–

Now from value to molecule, other results behind:

IC50 [2] [µM]	MIC [3] [µg/mL]	MIC [4] [µg/mL]	MIC [5] [µg/mL]	MIC [6] [µg/mL]	SMILES	LC30 [1] [µg/mL]
48.1	25 (≈ 55.3 µM)	25 (≈ 55.3 µM)	50 (≈ 111 µM)	25 (≈ 55.3 µM)	O=C(Cc1ccc(Br)cc1)Nc1nc(-c2ccc(Br)cc2)cs1	> 10000
9.8	6.25 (≈ 13.8 µM)	6.25 (≈ 13.8 µM)	12.5 (≈ 27.6 µM)	6.25 (≈ 13.8 µM)	O=C(Cc1cccc(Br)c1)Nc1nc(-c2ccc(Br)cc2)cs1	> 10000
–	3.13 (≈ 6.47 µM)	0.39 (≈ 0.807 µM)	3.13 (≈ 6.47 µM)	1.56 (≈ 3.23 µM)	NC[C@H]1O[C@H](O[C@H]2[C@H](O)[C@@H](O[C@H]3O[C@H](CO)[C@@H](O)[C@H](N)[C@H]3O)[C@H](N)C[C@@H]2N)[C@H](N)[C@@H](O)[C@@H]1O [BEKANAMYCIN]	–
29.3	12.5 (≈ 31.9 µM)	6.25 (≈ 16 µM)	12.5 (≈ 31.9 µM)	12.5 (≈ 31.9 µM)	O=C(Cc1ccc(F)cc1)Nc1nc(-c2ccc(Br)cc2)cs1	> 10000
–	25 (≈ 67 µM)	25 (≈ 67 µM)	50 (≈ 134 µM)	50 (≈ 134 µM)	O=C(Cc1ccccc1)Nc1nc(-c2ccc(Br)cc2)cs1	–
34.7	12.5 (≈ 30.7 µM)	12.5 (≈ 30.7 µM)	25 (≈ 61.3 µM)	12.5 (≈ 30.7 µM)	O=C(Cc1ccc(Cl)cc1)Nc1nc(-c2ccc(Br)cc2)cs1	> 10000
12.3	6.25 (≈ 19 µM)	12.5 (≈ 38 µM)	6.25 (≈ 19 µM)	6.25 (≈ 19 µM)	O=C(Cc1cccc(Cl)c1)Nc1nc(-c2ccccc2)cs1	> 10000
26.9	3.13 (≈ 8.39 µM)	6.25 (≈ 16.7 µM)	12.5 (≈ 33.5 µM)	12.5 (≈ 33.5 µM)	O=C(Cc1cccc(Br)c1)Nc1nc(-c2ccccc2)cs1	> 10000
38.4	12.5 (≈ 40 µM)	12.5 (≈ 40 µM)	25 (≈ 80 µM)	12.5 (≈ 40 µM)	O=C(Cc1ccc(F)cc1)Nc1nc(-c2ccccc2)cs1	> 10000
5.3	3.13 (≈ 7.68 µM)	6.25 (≈ 15.3 µM)	3.13 (≈ 7.68 µM)	1.56 (≈ 3.83 µM)	O=C(Cc1cccc(Cl)c1)Nc1nc(-c2ccc(Br)cc2)cs1	> 10000

From ChEMBL document CHEMBL2401689, “Design, synthesis and antibacterial activity studies of thiazole derivatives as potent ecKAS III inhibitors” (Bioorg Med Chem Lett, 2013)
